Values quoted from earlier work as cited in patent US20190298669A1 (priority 2018, published 2019).

Legend:
[1] = system: viral RNP complexes; settings: Pleschka et al., 2001; cited from earlier work
[2] = human, in vivo; cited from earlier work

| SMILES | nuclear cytoplasmic transport of viral RNP complexes [1] | patients experiencing nausea and vomiting [2] |
| --- | --- | --- |
| N#CC(=C(/N)Sc1ccccc1N)/C(C#N)=C(\N)Sc1ccccc1N [U0126] | leads to a blockade | – |
| CCOC(=O)C1=C[C@@H](OC(CC)CC)[C@H](NC(C)=O)[C@@H](N)C1 [oseltamivir] | – | 10-15% |
